Measured values: patent US20230159510A1, “NOVEL PRMT5 INHIBITORS” (AMGEN INC., priority 2020, published 2023)
pIC50: −log10 of the molar value. Read-outs that look alike come from different tables or passages of the source.

Tests used:
HCT116 WT cells = test: HCT116 proliferation assay, WT cells (CellTiter-Glo, 6 days); type: cell-based; conditions: read-out: Prolif_HCT116-WT IC50
Description: (§1) HCT116 MTAP null and WT cells were seeded in 96-well tissue culture plates in RPMI 1640 media + 10% fetal bovine serum. Plates were incubated overnight at 37° C. and 5% CO2. Cells were then treated with a 8- or 9-point serial dilution of compound, using a top concentration of 1 or 10 µM, 1:3 serial dilution steps and, a DMSO-only control. Cells were incubated in the presence of drug for 6 days. Effects on cell viability were measured with the CellTiter-Glo® Luminescent Cell Viability Assay (Promega) per manufacturer’s recommendation. Assay plates were read on an EnVision™ Multilabel Reader using the Ultra-Sensitive luminescence module.

HCT116 MTAP null cells = test: HCT116 proliferation assay, MTAP null cells (CellTiter-Glo, 6 days); type: cell-based; conditions: read-out: Protif_ HCT116-MTAP null IC50
Description: as §1

| Molecule | pIC50 (HCT116 WT cells) | pIC50 (HCT116 MTAP null cells) | pIC50 (HCT116 WT cells; Homo sapiens, HCT-116, 144 h) | pIC50 (HCT116 MTAP null cells; HCT116-MTAP null, 144 h) |
| --- | --- | --- | --- | --- |
| 2-amino-N-((1S,2S)-2-methoxy-2,3-dihydro-1H-inden-1-yl)-3-methyl-N-((5-(trifluoromethyl)-2-pyridinyl)methyl)-6-quinolinecarboxamide [Example 753] | < 5.00 | 6.39 | – | – |
| 2-amino-N-((3R,4S)-3-fluorotetrahydro-2H-pyran-4-yl)-3-methyl-N-((5-(trifluoromethyl)-2-pyridinyl)methyl)-6-quinolinecarboxamide and 2-amino-N-((3S,4R)-3-fluorotetrahydro-2H-pyran-4-yl)-3-methyl-N-((5-(trifluoromethyl)-2-pyridinyl)methyl)-6-quinolinecarboxamide [Example 747] | 5.28 | 6.41 | – | – |
| CO[C@@H]1COCC[C@H]1N(Cc1ccc(C(F)(F)F)cn1)C(=O)c1ccc2nc(N)c(C)cc2c1 (mixture of isomers) [Example 748, 2-amino-N-((3R,4S)-3-methoxytetrahydro-2H-pyran-4-yl)-3-methyl-N-((5-(trifluoromethyl)-2-pyridinyl)methyl)-6-quinolinecarboxamide and 2-amino-N-((3S,4R)-3-methoxytetrahydro-2H-pyran-4-yl)-3-methyl-N-((5-(trifluoromethyl)-2-pyridinyl)methyl)-6-quinolinecarboxamide] | 5.58 | 7.08 | – | – |
| Cc1cc2cc(C(=O)N(Cc3ccc(C(F)(F)F)cn3)[C@@H]3COCC[C@H]3F)ccc2nc1N (mixture of isomers) [Example 749, 2-amino-N-((3R,4R)-4-fluorotetrahydro-2H-pyran-3-yl)-3-methyl-N-((5-(trifluoromethyl)-2-pyridinyl)methyl)-6-quinolinecarboxamide and 2-amino-N-((3S,4S)-4-fluorotetrahydro-2H-pyran-3-yl)-3-methyl-N-((5-(trifluoromethyl)-2-pyridinyl)methyl)-6-quinolinecarboxamide] | – | – | 5.67 | 7.02 |
| Cc1cc2cc(C(=O)N(Cc3ccc(C(F)(F)F)cn3)[C@@H]3CCOC[C@H]3O)ccc2nc1N (mixture of isomers) [Example 803, 2-amino-N-((3R,4S)-3-hydroxytetrahydro-2H-pyran-4-yl)-3-methyl-N-((5-(trifluoromethyl)-2-pyridinyl)methyl)-6-quinolinecarboxamide and 2-amino-N-((3S,4R)-3-hydroxytetrahydro-2H-pyran-4-yl)-3-methyl-N-((5-(trifluoromethyl)-2-pyridinyl)methyl)-6-quinolinecarboxamide] | – | – | < 5.00 | 6.39 |
| CC[C@H](c1ncccn1)N(Cc1ccc(C(F)(F)F)cn1)C(=O)c1cnc2nc(N)c(Br)cc2c1 (single isomer, unassigned) [Example 443] | – | – | 5.68 | 7.02 |
| Cc1cc2cc(C(=O)N(Cc3ccc(C(F)(F)F)cn3)[C@@H](C)c3ccc(F)cn3)ccc2nc1N (single isomer, unassigned) [Example 485] | – | – | 5.33 | 6.13 |
| Cc1cc2cc(C(=O)N(Cc3ncccc3F)[C@H]3COc4cc(C(F)(F)F)ccc43)ccc2nc1N (single isomer, unassigned) [Example 524] | – | – | 5.63 | 6.87 |
| Cc1cc2cc(C(=O)N(Cc3ccc(C(F)(F)F)cn3)[C@@H]3CCOC[C@H]3F)ccc2nc1N (single isomer, unassigned) [Example 781] | – | – | 5.47 | 6.59 |
| COc1ccc(CN(C(=O)c2ccc3nc(N)c(C)cc3c2)[C@H](C)c2ncccn2)cn1 (single isomer, unassigned) [Example 786] | – | – | < 5.00 | 6.49 |
| COC[C@@H](C1CC1)N(Cc1ccc(C(F)(F)F)cn1)C(=O)c1ccc2nc(N)c(C)cc2c1 (single isomer, unassigned) [Example 809] | – | – | 6.44 | 7.82 |
| COC[C@H](C1CC1)N(Cc1ccc(C(F)(F)F)cn1)C(=O)c1ccc2nc(N)c(C)cc2c1 (single isomer, unassigned) [Example 810] | – | – | 5.27 | 6.23 |

Next, values leading:

| pIC50 (HCT116 WT cells) | pIC50 (HCT116 MTAP null cells) | pIC50 (HCT116 WT cells; Homo sapiens, HCT-116, 144 h) | pIC50 (HCT116 MTAP null cells; HCT116-MTAP null, 144 h) | Molecule |
| --- | --- | --- | --- | --- |
| 5.03 | 6.41 | – | – | 2-amino-3-methyl-N-(4-(3-oxetanyl)benzyl)-N-((1R)-1-(2-pyrimidinyl)ethyl)-6-quinolinecarboxamide, 2-amino-3-methyl-N-(4-(3-oxetanyl)benzyl)-N-((1S)-1-(2-pyrimidinyl)ethyl)-6-quinolinecarboxamide [Example 802] |
| – | – | 5.16 | 6.60 | CO[C@@H]1CCCC[C@H]1N(Cc1ccc(C(F)(F)F)cn1)C(=O)c1cnc2nc(N)c(Br)cc2c1 (racemic) [Example 798, 7-amino-6-bromo-N-((1R,2R)-2-methoxycyclohexyl)-N-((5-(trifluoromethyl)pyridin-2-yl)methyl)-1,8-naphthyridine-3-carboxamide] |
| – | – | 5.92 | 7.41 | CO[C@@H]1CCOC[C@H]1N(Cc1ccc(C(F)(F)F)cn1)C(=O)c1ccc2nc(N)c(C)cc2c1 (racemic) [Example 833, 2-Amino-N-((3R,4R)-4-methoxytetrahydro-2H-pyran-3-yl)-3-methyl-N-((5-(trifluoromethyl)-2-pyridinyl)methyl)-6-quinolinecarboxamide and 2-amino-N-((3S,4S)-4-methoxytetrahydro-2H-pyran-3-yl)-3-methyl-N-((5-(trifluoromethyl)-2-pyridinyl)methyl)-6-quinolinecarboxamide] |
| – | – | 5.63 | 7.23 | Cc1cc2cc(C(=O)N(Cc3ccc(C(F)(F)F)cn3)[C@H](C)c3ccc(F)cn3)ccc2nc1N (single isomer, unassigned) [Example 484] |
| – | – | 5.28 | 6.86 | COc1ccc(CN(C[C@H](OC)C(F)(F)F)C(=O)c2ccc3nc(N)c(C)cc3c2)nn1 (single isomer, unassigned) [Example 774] |
| – | – | 5.77 | 7.30 | COc1ccc(CN(C(=O)c2ccc3nc(N)c(C)cc3c2)[C@@H](c2ncccn2)C2CC2)nn1 (single isomer, unassigned) [Example 775] |
| – | – | 5.74 | 6.84 | Cc1cc2cc(C(=O)N(Cc3ccc(C(F)(F)F)cn3)[C@@H]3CC(F)(F)C[C@H]3O)ccc2nc1N (single isomer, unassigned) [Example 780] |
| – | – | 6.34 | 7.77 | CO[C@@H]1CCOC[C@H]1N(Cc1ccc(C(F)(F)F)cn1)C(=O)c1ccc2nc(N)c(C)cc2c1 (single isomer, unassigned) [Example 782] |
| – | – | 5.33 | 6.58 | Cc1cc2cc(C(=O)N(Cc3ncccc3Cl)[C@H](C)c3ncccn3)c(F)cc2nc1N (single isomer, unassigned) [Example 784] |
| – | – | 5.58 | 6.91 | COc1ccc(CN(C(=O)c2ccc3nc(N)c(C)cc3c2)[C@H](C)c2ncn(C)n2)nn1 (single isomer, unassigned) [Example 785] |
| – | – | 5.76 | 7.23 | C[C@H](c1cscn1)N(Cc1ccc(C(F)(F)F)nn1)C(=O)c1cnc2nc(N)c(Br)cc2c1 (single isomer, unassigned) [Example 787] |
| – | – | 5.80 | 7.19 | CC[C@H](c1ncccn1)N(Cc1ccc(C(F)(F)F)cn1)C(=O)c1cnc2nc(N)c(I)cc2c1 (single isomer, unassigned) [Example 788] |
| – | – | – | < 6.00 | C#CCCCN(Cc1ccc(C(F)(F)F)cn1)C(=O)c1ccc2nc(N)c(C)cc2c1 [Example 692, 2-amino-3-methyl-N-pent-4-ynyl-N-[[5-(trifluoromethyl)-2-pyridyl]methyl] quinoline-6-carboxamide] |
